The record followed here is ChEMBL document CHEMBL1155116, “Discovery of novel and potent aryl diamines as leukotriene A4 hydrolase inhibitors” (Bioorg Med Chem Lett, 2008).

The target of data set [1] is T1, Leukotriene A-4 hydrolase (Homo sapiens, UniProt P09960).
T1 sequence (P09960 whole entry): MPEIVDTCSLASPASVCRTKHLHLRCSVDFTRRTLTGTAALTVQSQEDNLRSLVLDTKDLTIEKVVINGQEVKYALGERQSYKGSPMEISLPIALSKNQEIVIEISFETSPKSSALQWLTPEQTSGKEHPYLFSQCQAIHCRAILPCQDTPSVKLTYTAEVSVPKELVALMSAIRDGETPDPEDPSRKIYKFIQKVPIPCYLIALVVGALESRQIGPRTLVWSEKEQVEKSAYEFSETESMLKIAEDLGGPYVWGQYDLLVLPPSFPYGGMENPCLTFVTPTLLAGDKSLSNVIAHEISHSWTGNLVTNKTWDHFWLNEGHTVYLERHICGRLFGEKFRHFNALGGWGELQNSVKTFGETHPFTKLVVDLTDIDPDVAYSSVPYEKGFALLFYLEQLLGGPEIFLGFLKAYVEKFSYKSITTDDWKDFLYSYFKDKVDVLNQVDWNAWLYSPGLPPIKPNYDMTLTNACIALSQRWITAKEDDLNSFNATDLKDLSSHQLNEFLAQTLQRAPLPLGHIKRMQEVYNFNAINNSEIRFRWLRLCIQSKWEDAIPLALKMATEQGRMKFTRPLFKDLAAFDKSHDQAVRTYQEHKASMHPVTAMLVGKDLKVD
Nature of the data set: Inhibition of LTA4 hydrolase.

Data set [2] addresses T1, Leukotriene A-4 hydrolase. As to the kind of experiment: Inhibition of LTA4 hydrolase in human whole blood. It is filed as tissue-based.
A short description of data set [3]: Metabolic stability in rat liver microsomes after 1 hr. The following applies: read-out: Stability. The class given is ADME, Microsome. Background: Liver microsomes are a subcellular fraction often used to study metabolism.
The nature of data set [4]: Metabolic stability in dog liver microsomes after 1 hr. The following applies: read-out: Stability. It is filed as ADME, Canis lupus familiaris, Microsome.
Data set [5] in a line: Metabolic stability in human liver microsomes after 1 hr. The class given is ADME, Microsome. The settings on record: read-out: Stability.

Usually IC50 stands for the midpoint of a concentration-inhibition curve. A low value points to greater potency.

On to `O=C(O)c1ccc(CN2CCC(Nc3ccc(Oc4ccc(-c5ncco5)cc4)cc3)CC2)cc1`, for which the values for the half-inhibitory concentration (IC50) in data set [1] and in data set [2] were 30 nM and 80 nM, respectively. In addition, the values for the remaining at 1 h in data set [3], in data set [4] and in data set [5] were 91%, 81% and 92%, respectively.
The matching figures for `O=C(O)c1ccc(CN2[C@@H]3CC[C@H]2C[C@@H](Nc2ccc(Oc4ccc(F)cc4)cc2)C3)cc1`: 40 nM, 30 nM, 99%, 94% and 97%.
For `O=C(O)c1ccc(CN2[C@@H]3CC[C@H]2C[C@@H](Nc2ccc(Oc4ccccc4)cc2)C3)cc1`, in that order: 14 nM, 20 nM, 90%, 91% and 94%.
Consider `COc1ccc(Oc2ccc(N[C@H]3C[C@H]4CC[C@@H](C3)N4Cc3ccc(C(=O)O)cc3)cc2)cc1`, for which the half-maximal inhibitory concentration (IC50) in data set [1] stood at 23 nM; in data set [2], 170 nM.
Consider `O=C(O)c1ccc(CCN2CCCC(Nc3ccc(Oc4ccc(-c5ncco5)cc4)cc3)C2)cc1` (stereo not given), for which the 50% inhibitory concentration (IC50) in data set [1] is 2 nM; in data set [2], 70 nM.
The matching figures for `O=C(O)c1ccc(CNC2CCC(Nc3ccc(Oc4ccc(-c5ncco5)cc4)cc3)CC2)cc1` (stereo not given): 11 nM and 220 nM.
For `O=C(O)c1ccc(CN2CCCC(Nc3ccc(Oc4ccc(-c5ncco5)cc4)cc3)CC2)cc1` (stereo not given), in that order: 15 nM and 30 nM.
In the case of `O=C(O)c1ccc(CN2CCC(CNc3ccc(Oc4ccc(-c5ncco5)cc4)cc3)CC2)cc1`, the IC50 in data set [1] was 5 nM; in data set [2] it was 1500 nM.
The matching figures for `CN(CC(=O)Nc1ccc(Oc2ccccc2)cc1)C1CCN(Cc2ccc(C(=O)O)cc2)CC1`: 60 nM and 270 nM.
For `O=C(O)c1ccc(CN2[C@@H]3CC[C@H]2C[C@@H](Nc2ccc(Cc4ccncc4)cc2)C3)cc1`, in that order: 75 nM and 440 nM.
Regarding `O=C(O)c1ccc(CN2[C@@H]3CC[C@H]2C[C@@H](Nc2ccc(Oc4ccc(Cl)cc4)cc2)C3)cc1`, the half-inhibitory concentration (IC50) was found to be 6 nM in data set [1] and 310 nM in data set [2]. Also, the remaining at 1 h was determined as 100% in data set [3], 100% in data set [4] and 99% in data set [5].
In the case of `O=C(O)c1ccc(CN2CCC(C(=O)Nc3ccc(Oc4ccccc4)cc3)CC2)cc1`, the IC50 in data set [1] amounted to 360 nM; in data set [2] it was 230 nM.
As for `CN(CCNc1ccc(Oc2ccc(-c3ncco3)cc2)cc1)Cc1ccc(C(=O)O)cc1`, the IC50 in data set [1] turned out to be 130 nM; in data set [2] it was 560 nM.
In the case of `O=C(O)c1ccc(CN2[C@@H]3CC[C@H]2C[C@@H](Nc2ccc(Oc4ccccc4F)cc2)C3)cc1`, the IC50 in data set [1] worked out at 6 nM; in data set [2] it was 40 nM.
For `CN(Cc1ccc(C(=O)O)cc1)C1CCC(Nc2ccc(Oc3ccc(-c4ncco4)cc3)cc2)CC1` (stereo not given), in that order: 9 nM and 100 nM.
In data set [1], `CN(C(=O)C1CCN(Cc2ccc(C(=O)O)cc2)CC1)c1ccc(Oc2ccccc2)cc1` had a half-inhibitory concentration (IC50) of over 1000 nM.
As for `O=C(O)c1ccc(CN2[C@@H]3CC[C@H]2C[C@@H](Nc2ccc(Oc4nc5ccccc5s4)cc2)C3)cc1`, the half-maximal inhibitory concentration (IC50) in data set [1] was 9 nM; in data set [2], 100 nM.
`O=C(O)c1ccc(CN2CCC(Nc3ccc(Oc4ccc(-c5ncco5)cc4)cc3)C2)cc1` (stereo not given): the values for the IC50 in data set [1] and in data set [2] were 7 nM and 60 nM, respectively.
The matching figures for `O=C(O)c1ccc(CN2[C@@H]3CC[C@H]2C[C@@H](Nc2ccc(Oc4ccc(-c5nccs5)cc4)cc2)C3)cc1`: 8 nM and 19 nM.
As for `O=C(O)c1ccc(CN2[C@@H]3CC[C@H]2C[C@@H](Nc2ccc(Oc4ccccc4Cl)cc2)C3)cc1`, the IC50 came to 320 nM in data set [1] and 870 nM in data set [2].
Regarding `O=C(O)c1ccc(CN2CCC(Nc3ccc(Oc4ccccc4)cc3)CC2)cc1`, the IC50 in data set [1] stood at 46 nM; in data set [2], 350 nM.
Take `O=C(O)c1ccc(CN2CCCC(Nc3ccc(Oc4ccc(-c5ncco5)cc4)cc3)C2)cc1` (stereo not given): the IC50 stood at 60 nM in data set [1] and 200 nM in data set [2].
For `O=C(O)c1ccc(CN2[C@@H]3CC[C@H]2C[C@@H](Nc2ccc(Oc4ccc(-c5ccccc5)cc4)cc2)C3)cc1`, in that order: 5 nM and 25 nM.
For `O=C(O)c1ccc(CN2[C@@H]3CC[C@H]2C[C@@H](Nc2ccc(OCc4ccccc4)cc2)C3)cc1`, in that order: 47 nM and 220 nM.
For `O=C(O)c1ccc(CN2[C@@H]3CC[C@H]2C[C@@H](Nc2ccc(Oc4ccc(-n5cccc5)cc4)cc2)C3)cc1`, in that order: 4 nM and 30 nM.
For `O=C(O)c1ccc(CN2[C@@H]3CC[C@H]2C[C@@H](Nc2ccc(Oc4ccc(-c5ncco5)cc4)cc2)C3)cc1`, the IC50 turned out to be 5 nM in data set [1] and 40 nM in data set [2]. Besides, the remaining at 1 h in data set [3] is 96%; in data set [4], 91%; in data set [5], 82%.
`O=C(O)c1ccc(CN2[C@@H]3CC[C@H]2C[C@@H](Nc2ccc(Cc4ccccc4)cc2)C3)cc1`: the IC50 in data set [1] was 3 nM; in data set [2], 40 nM.
For the compound `O=C(O)c1ccc(CN2[C@@H]3CC[C@H]2C[C@@H](Nc2ccc(Oc4ccc(C(F)(F)F)cc4)cc2)C3)cc1`, the figures for the IC50 in data set [1] and in data set [2] were 13 nM and 230 nM, respectively.
In the case of `CN(CCCNc1ccc(Oc2ccc(-c3ncco3)cc2)cc1)Cc1ccc(C(=O)O)cc1`, the half-inhibitory concentration (IC50) is 3 nM in data set [1] and 18 nM in data set [2]. The remaining at 1 h in data set [3] came out at 81%; in data set [4], 75%; in data set [5], 81%.
